Assay: gradient 5% acetonitrile 3 min, to 50% in 2 min, to 85% in 15 min, held 3 min, 100 µL/min
Settings: column: Zorbax Extend-C18 2.1 x 50 mm; eluents: water / acetonitrile, 0.1% formic acid
In short: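 Using water and acetonitrile that each contained 0.1% formic acid, mixtures of ~100 pure standards were separated at 100 μL/min on a Zorbax Extend-C18 column (2.1 × 50 mm, 1.8 μm). The HPLC fed a quadrupole time-of-flight mass spectrometer working in positive and negative ionization mode, with dead and dwell volumes of 40 μL and 900 μL. Data were acquired over 3 months. Retention time was read from computationally picked adduct peaks after manual inspection of each.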

| SMILES | RP-LC retention time [s] |
| --- | --- |
| COc1ccc(-c2nc3ncccn3c2NCc2ccc(C)cc2)cc1OC | 709 |
| CCN1C(=O)COc2ccc(-c3noc(C(C)NC(=O)c4ccccc4)n3)cc21 (configuration not stated) | 856 |
| CC(CCc1ccccc1)NC(=O)c1ccc2c(c1)CCCN2S(C)(=O)=O (configuration not stated) | 935 |
| CCc1ccc(-c2noc(CSc3nc4cc5c(cc4c(=O)n3CCOC)OCO5)n2)cc1 | 1190 |
| COc1ccccc1CNC(=O)Cn1nc2c(N3CCSCC3)nccn2c1=O | 767 |
| Cc1noc(-c2nn(C)c3c2CN(C(=O)COc2ccc(F)cc2)CC3)n1 | 740 |
| O=C(O)/C=C/c1ccc(Cn2ccnc2)cc1 | 612 |
| CC(C)n1cnnc1CC1CN(C(=O)Nc2ccccc2Cl)C1 | 640 |
| CC(C)n1c(=O)oc2cc(-c3noc(-c4cccc(Cl)c4)n3)ccc21 | 1180 |
| CCCN1C(=O)c2cc(S(=O)(=O)NC(C)C)ccc2Oc2cccnc21 | 960 |
| COc1ccc(CNC(=O)C2CCCN(c3nnc4cccc(C)n34)C2)c(OC)c1 (configuration not stated) | 688 |
| Cc1cccc(N2CCN(C(=O)Cn3c(=O)c4nnc(C)n4c4ncccc43)CC2)c1 | 738 |
| CN(C)S(=O)(=O)c1ccc2c(c1)N(CC(=O)NCCCc1ccccc1)C(=O)C1CCCCN21 (configuration not stated) | 955 |
| Cc1ccc(C)c(-c2csc(Nc3ccccn3)n2)c1 | 821 |
| Cc1ccccc1CNS(=O)(=O)c1ccc(-c2c(C)noc2C)cc1 | 959 |
| CCc1nc(-c2cc(S(=O)(=O)NCC(=O)NC3CCCc4ccccc43)c(C)s2)no1 (configuration not stated) | 998 |
| Cn1nc2c(c1NC(=O)c1ccc([N+](=O)[O-])s1)CCC2 | 698 |
| O=C(c1cn(-c2cc(-c3nc(C4CC4)no3)ccn2)cn1)N1CCCC1 | 767 |
| CCC(=O)Nc1ccc(CCc2nc3ccc(C(=O)NCCC(C)C)cc3[nH]2)cc1 | 645 |
| Cc1nnc(N2CCCC(C(=O)NC3CCCCCC3)C2)c2nn(-c3ccc(Cl)cc3)c(C)c12 (configuration not stated) | 831 |
| CCc1cc(=O)n(CC(=O)Nc2ccccc2CC)c(N2CCOCC2)n1 | 784 |
| CCCCC(=O)Nc1ccc(-c2nc(-c3cc(C)ccc3C)co2)cc1 | 1280 |

| SMILES | RP-LC retention time [s] |
| --- | --- |
| Cc1ccc(CNC(=O)C2CCCN(S(=O)(=O)c3c[nH]c(C(=O)N4CCCC4)c3)C2)cc1 (configuration not stated) | 762 |
| CCCCNC(=O)CCCN1C(=O)CCn2nc(C)cc21 | 629 |
| COc1cccc(C(O)CN2CCN(C3CCCCC3)CC2)c1 (configuration not stated) | 548 |
| Cn1nc(N2CCCC(NS(=O)(=O)c3cccc(Cl)c3)C2)ccc1=O (configuration not stated) | 775 |
| O=C(Cc1ccsc1)N1C[C@H]2C[C@H](C1)[C@H]1CCCC(=O)N1C2 | 631 |
| Cc1cnc(-c2ccncc2)n1CC1CN(S(=O)(=O)c2ccc3c(c2)CCC3)C1 | 651 |
| Cc1ccc(-c2cn3c(CC(=O)Nc4ccc(Cl)cc4)csc3n2)cc1C | 940 |
| O=C(c1cccc(C(F)(F)F)c1)N1CCN(c2nc(CN3CCOCC3)cs2)CC1 | 644 |
| CC(C)CCNC(=O)c1cccc2c1CCN2C(=O)C1CC1 | 831 |
| Cc1ncsc1C1N(C2CCN(C(=O)c3ccoc3)CC2)C(=O)C12CCCC2 (configuration not stated) | 719 |
| Cc1ccc(CNC(=O)C2CCN(S(=O)(=O)c3cc(C(=O)N4CCCCCC4)cs3)CC2)o1 | 862 |
| CCOc1ccc(C2Cn3nnc(-c4nc(-c5ccccn5)no4)c3CO2)cc1 (configuration not stated) | 921 |
| COc1ccc(C2C(C(=O)Nc3ccc4c(c3)OCCO4)c3ccccc3C(=O)N2C)cc1 (configuration not stated) | 832 |
| O=S(=O)(c1ccc(Br)cc1)N1CCCC(COCc2ccccc2)C1 (configuration not stated) | 1220 |
| CC(C)C(=O)Nc1ccc2c(c1)N(C(=O)c1cccs1)CCC2 | 819 |
| Cc1ccc(CS(=O)(=O)N2CCC(n3c(-c4ccco4)nc4cccnc43)C2)cc1C (configuration not stated) | 995 |
| COc1ccccc1C(=O)NC1(C(F)(F)F)C(=O)N(CC2CCCO2)C2=C1C(=O)CC(C)(C)C2 (configuration not stated) | 986 |
| Cc1ccc(C)c(N2CCN(S(=O)(=O)c3cc(-c4cc(C(F)(F)F)[nH]n4)sc3C)CC2)c1 | 1300 |
| Cn1c(=O)c2ccn(CC(=O)N3CCC(Cc4ccccc4)CC3)c2n(C)c1=O | 782 |
| Cc1[nH]c2ccccc2c1C(=O)C(=O)NCc1ccccn1 | 605 |
| Cc1nc(-c2cn(C(C)C)c3ncccc23)sc1C(=O)N1CCCCC1C (configuration not stated) | 1030 |
| Cn1c(=O)c2nc(S(=O)(=O)CCC(=O)Nc3ccc(F)c(Cl)c3)n(C)c2n(C)c1=O | 756 |

Results, then the molecule that gave them:

| RP-LC retention time [s] | SMILES |
| --- | --- |
| 771 | O=C(CCn1cnc2cc(-c3noc(-c4ccc(F)cc4)n3)ccc21)N1CCCC1 |
| 634 | COc1ccc(N2CCN(C(=O)C3CCN(c4cnc5nccnc5c4)CC3)CC2)cc1 |
| 1060 | COc1ccc(C2(C(=O)N3CCC(c4nc(CCOCC5CCCC5)no4)C3)CC2)cc1 (configuration not stated) |
| 731 | O=C(NCc1ccccc1)N1CCCC1c1nc(-c2ccccc2)n[nH]1 (configuration not stated) |
| 626 | COc1ccc(NC(=O)Cn2c(N3CCCC3)nc(C)cc2=O)c(OC)c1 |
| 878 | O=C(Cn1cccc(-c2nc(-c3ccc(F)cc3)no2)c1=O)Nc1ccc(F)cc1 |
| 932 | Cc1nc(-c2csc(S(=O)(=O)N3CCCC(C(=O)NCCc4sccc4C)C3)c2)no1 (configuration not stated) |
| 855 | O=C(NC1CC1)[C@@H]1C[C@H](Oc2ccccc2)CN1C(=O)C1(c2ccccc2)CC1 |
| 626 | CCS(=O)(=O)Nc1ccc2nc(N3CCN(c4ccc(OC)cc4)CC3)cc(C(=O)O)c2c1 |
| 868 | CCn1ccc2cc(S(=O)(=O)N3CCCN(C(=O)Nc4ccccc4)CC3)ccc21 |
| 614 | CC1CCN(CCNC(=O)Cn2c(=O)n(-c3ccc(F)cc3)c3ncccc32)CC1 |
| 629 | N#Cc1ccc(C(=O)NC2CCN(C(=O)C3CC3)C2)cc1 (configuration not stated) |
| 989 | CCN1C(=O)COc2ccc(-c3csc(NC(=O)c4ccc(F)cc4)n3)cc21 |
| 686 | Cn1cc(CN2CCCC(COc3ccccc3C(=O)NC3CC3)C2)c2ccccc21 (configuration not stated) |
| 1080 | Cc1cccc(NC(=O)CN2C(=O)C3CCCCN3c3ccc(S(=O)(=O)N4CCCCC4)cc32)c1 (configuration not stated) |
| 985 | O=C(Nc1cc(F)ccc1F)N1CCc2nc(-c3ccc(F)cc3)ncc2C1 |
| 964 | COc1cc(C)c(C)cc1S(=O)(=O)NCC1CCN(C(=O)Oc2ccccc2)CC1 |
| 1010 | CC(C(=O)N1CCC(N2CCc3ccccc32)CC1)c1ccccc1 (configuration not stated) |
| 839 | Cc1cccc(N2C(=O)CN(CCc3ccc(F)cc3)[C@H]3CS(=O)(=O)C[C@H]32)c1 |
| 930 | Cc1cccc(NC(=O)Cn2nc3c(Oc4ccc(Cl)cc4)nccn3c2=O)c1 |
| 647 | CCc1ccc(-c2cc3c(=O)n(Cc4noc(CN5CCN(C)CC5)n4)ccn3n2)cc1 |
| 623 | CS(=O)(=O)NC1(CC2CC2)CCN(Cc2cn[nH]c2-c2ccc(F)cc2)CC1 |

| RP-LC retention time [s] | SMILES |
| --- | --- |
| 683 | CCCn1cnc2cc(CNC(=O)c3ccc(Cl)c(Cl)c3)ccc21 |
| 693 | COc1ccc(CC2c3cc(OC)c(OC)cc3CC[N+]2(C)C)cc1OC (configuration not stated) |
| 559 | COC[C@@H]1CN(Cc2c(C)n[nH]c2C)C[C@H]1c1ccncc1 |
| 1090 | COc1ccc(-n2c(=O)c(C(=O)NCc3ccc4c(c3)OCO4)c(O)c3cccnc32)cc1 |
| 1060 | O=C(NCCc1ccccc1)Nc1nccn(-c2ccc3c(c2)CCC3)c1=O |
| 902 | CCOc1ccc(NS(=O)(=O)c2cc(C(=O)Nc3ccc(C)c(C)c3)n[nH]2)cc1 |
| 596 | CCOC(=O)C1=C(CN2CCN(c3ccccn3)CC2)NC(=O)NC1c1ccccc1 (configuration not stated) |
| 1310 | CCOc1ccc2cccc(NC(=O)c3cc(C)oc3C)c2n1 |
| 540 | Cc1nc([C@@H]2CN(C(=O)c3cc(C4CC4)[nH]n3)C[C@H]2C(N)=O)n[nH]1 |
| 838 | CCc1nc(-c2csc(S(=O)(=O)N3CCC(C(=O)Nc4cccc(C)n4)CC3)c2)no1 |
| 598 | Cc1ccc2c(Nc3ccc(F)c(C#N)c3)c(C(=O)N3CCOCC3)cnc2n1 |
| 834 | Cc1ccn(-c2cc(Cl)ccc2[C@@H](Oc2cc(-c3ccc(C[C@H](N)C(=O)O)cc3)nc(N)n2)C(F)(F)F)n1 |
| 619 | CN1CCN(C(=O)c2cc(-c3ccccc3)cn2C)CC1 |
| 634 | Cc1ccc(C(=O)NCc2nc(-c3ccc4c(c3)ncn4C)no2)cc1 |
| 770 | COCCCNC(=O)C1c2ccccc2C(=O)N1Cc1ccc(Cl)cc1 (configuration not stated) |
| 904 | COC(=O)C1=CN(c2cc(OC)cc(OC)c2)c2cc(F)ccc2S1(=O)=O |
| 761 | Clc1nc2nc3n(c2nc1Cl)CCC3 |
| 826 | Cc1ccc(-c2noc(-c3cccc(S(=O)(=O)NCCCN4CCC(C)CC4)c3)n2)cc1 |
| 852 | O=C(Nc1ccc2c(c1)N(S(=O)(=O)c1ccc(F)cc1)CCC2)C1CC1 |
| 913 | Cc1nc2ccccc2c(=O)n1Cc1noc(-c2cccc(Cl)c2)n1 |
| 967 | Cc1ccc(Cn2c(N3CCCC(C(=O)NC4CCCC4)C3)nc3ccsc3c2=O)cc1 (configuration not stated) |

From the METLIN SMRT retention time set (Domingo-Almenara et al. 2019)
